# System: cancer-related neuropathic pain
# Assay: Open label dose escalation study of flupirtine, case studies JE and RM
# Details: for WHO PERFORMANCE STATUS: 0=fully active, 4=completely disabled; for WHO PERFORMANCE STATUS / SCORE SLEEP / SCORE POOR CONCENTRATION: day 1 baseline 3; for neuropathic dwascriminant function score: >0 = neuropathic, day 1 baseline 2.448; for freezing pain score / score for increased pain due to touch / score for increased pain due to weather changes / squeezing pain score: day 1 baseline 0; for burning pain score: day 1 baseline 90; for electric pain score / for shooting pain score / numbness score / score for overly sensitive to touch / tingling pain score / unpleasant pain score: day 1 baseline 95; for overwhelming pain score: day 1 baseline 98; for SCORE MOOD / SCORE RELATIONSHIPS / SCORE SLEEP / SCORE GENERAL ACTIVITY / SCORE WALKING / SCORE ENJOYMENT / SCORE TOTAL ACTIVITY: pain interference 1-10; for SCORE MOOD / SCORE RELATIONSHIPS / SCORE CONSTIPATION / SCORE INDIGESTION / LEAST PAIN LAST 24 HRS / PAIN SCORE RIGHT NOW: day 1 baseline 1; for SCORE GENERAL ACTIVITY: day 1 baseline 5; for SCORE WALKING: day 1 baseline 7; for SCORE ENJOYMENT / SCORE TOTAL ACTIVITY / AVERAGE PAIN LAST 24 HOURS: day 1 baseline 8; for SCORE CONSTIPATION / SCORE INDIGESTION / SCORE NAUSEA / SCORE UN[…] GAIT / SCORE POOR CONCENTRATION / SCORE DROWSINESS / SCORE POOR APPETITE: scale 1-4; for SCORE NAUSEA / SCORE UN[…] GAIT: day 1 baseline 2; for SCORE DROWSINESS / SCORE POOR APPETITE: day 1 baseline 4; for LEAST PAIN LAST 24 HRS / PAIN SCORE RIGHT NOW / AVERAGE PAIN LAST 24 HOURS / WORST PAIN SCORE LAST 24 HOURS: scale to 10; for WORST PAIN SCORE LAST 24 HOURS: day 1 baseline 10
# [1] = JE day 2, flupirtine 100 mg qid
# [2] = JE day 3, flupirtine 100 mg qid
# [3] = JE day 4, flupirtine 200 mg qid
# [4] = JE day 5, flupirtine 100 mg qid
smiles,measurement,setting,value
CCOC(=O)Nc1ccc(NCc2ccc(F)cc2)nc1N [flupirtine],WHO PERFORMANCE STATUS,[1],3
same,neuropathic dwascriminant function score,[1],−1.238
same,freezing pain score,[1],0
same,score for increased pain due to touch,[1],0
same,score for increased pain due to weather changes,[1],0
same,squeezing pain score,[1],0
same,burning pain score,[1],20
same,electric pain score,[1],0
same,for shooting pain score,[1],10
same,numbness score,[1],0
same,score for overly sensitive to touch,[1],0
same,tingling pain score,[1],0
same,unpleasant pain score,[1],0
same,overwhelming pain score,[1],0
same,SCORE MOOD,[1],1
same,SCORE RELATIONSHIPS,[1],1
same,SCORE SLEEP,[1],1
same,SCORE GENERAL ACTIVITY,[1],1
same,SCORE WALKING,[1],1
same,SCORE ENJOYMENT,[1],1
same,SCORE TOTAL ACTIVITY,[1],1
same,SCORE CONSTIPATION,[1],3
same,SCORE INDIGESTION,[1],1
same,SCORE NAUSEA,[1],1
same,SCORE UN[…] GAIT,[1],1
same,SCORE POOR CONCENTRATION,[1],1
same,SCORE DROWSINESS,[1],4
same,SCORE POOR APPETITE,[1],1
same,LEAST PAIN LAST 24 HRS,[1],0
same,PAIN SCORE RIGHT NOW,[1],0
same,AVERAGE PAIN LAST 24 HOURS,[1],2
same,WORST PAIN SCORE LAST 24 HOURS,[1],2
same,WHO PERFORMANCE STATUS,[2],2
same,neuropathic dwascriminant function score,[2],−1.408
same,freezing pain score,[2],0
same,score for increased pain due to touch,[2],0
same,score for increased pain due to weather changes,[2],0
same,squeezing pain score,[2],0
same,burning pain score,[2],0
same,electric pain score,[2],0
same,for shooting pain score,[2],0
same,numbness score,[2],0
same,score for overly sensitive to touch,[2],0
same,tingling pain score,[2],0
same,unpleasant pain score,[2],0
same,overwhelming pain score,[2],0
same,SCORE MOOD,[2],1
same,SCORE RELATIONSHIPS,[2],1
same,SCORE SLEEP,[2],1
same,SCORE GENERAL ACTIVITY,[2],1
same,SCORE WALKING,[2],1
same,SCORE ENJOYMENT,[2],1
same,SCORE TOTAL ACTIVITY,[2],1
same,SCORE CONSTIPATION,[2],1
same,SCORE INDIGESTION,[2],1
same,SCORE NAUSEA,[2],1
same,SCORE UN[…] GAIT,[2],1
same,SCORE POOR CONCENTRATION,[2],1
same,SCORE DROWSINESS,[2],3
same,SCORE POOR APPETITE,[2],1
same,LEAST PAIN LAST 24 HRS,[2],0
same,PAIN SCORE RIGHT NOW,[2],0
same,AVERAGE PAIN LAST 24 HOURS,[2],0
same,WORST PAIN SCORE LAST 24 HOURS,[2],0
same,WHO PERFORMANCE STATUS,[3],3
same,neuropathic dwascriminant function score,[3],−1.408
same,freezing pain score,[3],0
same,score for increased pain due to touch,[3],0
same,score for increased pain due to weather changes,[3],0
same,squeezing pain score,[3],0
same,burning pain score,[3],0
same,electric pain score,[3],0
same,for shooting pain score,[3],0
same,numbness score,[3],0
same,score for overly sensitive to touch,[3],0
same,tingling pain score,[3],0
same,unpleasant pain score,[3],0
same,overwhelming pain score,[3],0
same,SCORE MOOD,[3],1
same,SCORE RELATIONSHIPS,[3],1
same,SCORE SLEEP,[3],1
same,SCORE WALKING,[3],1
same,SCORE ENJOYMENT,[3],1
same,SCORE TOTAL ACTIVITY,[3],1
same,SCORE CONSTIPATION,[3],3
same,SCORE INDIGESTION,[3],1
same,SCORE NAUSEA,[3],1
same,SCORE UN[…] GAIT,[3],4
same,SCORE POOR CONCENTRATION,[3],2
same,SCORE DROWSINESS,[3],4
same,SCORE POOR APPETITE,[3],1
same,LEAST PAIN LAST 24 HRS,[3],0
same,PAIN SCORE RIGHT NOW,[3],0
same,AVERAGE PAIN LAST 24 HOURS,[3],0
same,WORST PAIN SCORE LAST 24 HOURS,[3],0
same,WHO PERFORMANCE STATUS,[4],4
same,neuropathic dwascriminant function score,[4],−1.408
same,freezing pain score,[4],0
same,score for increased pain due to touch,[4],0
same,score for increased pain due to weather changes,[4],0
same,squeezing pain score,[4],0
same,burning pain score,[4],0
same,electric pain score,[4],0
same,for shooting pain score,[4],0
same,numbness score,[4],0
same,score for overly sensitive to touch,[4],0
same,tingling pain score,[4],0
same,unpleasant pain score,[4],0
same,overwhelming pain score,[4],0
same,SCORE MOOD,[4],1
same,SCORE RELATIONSHIPS,[4],1
same,SCORE SLEEP,[4],1
same,SCORE GENERAL ACTIVITY,[4],1

# Reference: patent US8268821B2, “Methods and compositions” (priority 2003, dated 2012)
